From ChEMBL document CHEMBL5385885, “4-(5-Amino-pyrazol-1-yl)benzenesulfonamide derivatives as novel multi-target anti-inflammatory agents endowed with inhibitory activity against COX-2, 5-LOX and carbonic anhydrase: Design, synthesis, and biological assessments” (Eur J Med Chem, 2023)
pIC50, pKi: −log10 of the molar value. Each block holds one molecule with its values, some of them ahead of it.

Key:
[1] = target: Prostaglandin G/H synthase 1 (Homo sapiens, UniProt P23219)
Rattus norvegicus [2] = test: Anti-inflammatory activity in carrageen-induced paw edema rat model assessed as change in paw height measured after 1 hr (reference value: 0.68 +/- 0.04 %); assay type: functional
Rattus norvegicus [3] = test: Anti-inflammatory activity in carrageen-induced paw edema rat model assessed as change in paw height measured after 3 hrs (reference value: 0.78 +/- 0.08 %); assay type: functional
[4] = Ulcerogenic activity in Albino mouse assessed as histopathological change in stomach by H and E staining based analysis; assay type: toxicity; settings: in vivo
Mus musculus [5] = species: Mus musculus; test: Analgesic activity in mouse assessed protection against acetic acid-induced writhing measured for 20 mins relative to control; assay type: functional
Mus musculus [6] = species: Mus musculus; test: Analgesic activity in mouse assessed reduction in number of acetic acid-induced writhing measured for 20 mins (reference value: 40 +/- 2.9); assay type: functional
[7] = Ulcerogenic activity in Albino mouse assessed as inflammation in stomach by H and E staining based analysis; assay type: toxicity; settings: in vivo
Rattus norvegicus [8] = test: Anti-inflammatory activity in carrageen-induced paw edema rat model assessed as inhibition of edema measured after 3 hrs relative to control; assay type: functional
Rattus norvegicus [9] = test: Anti-inflammatory activity in carrageen-induced paw edema rat model assessed as change in paw height measured immediately (reference value: 0.56 +/- 0.05 %); assay type: functional
Rattus norvegicus [10] = test: Anti-inflammatory activity in carrageen-induced paw edema rat model assessed as change in paw height measured after 2 hrs (reference value: 0.64 +/- 0.05 %); assay type: functional
Carbonic anhydrase 1 = Carbonic anhydrase 1 (Homo sapiens, UniProt P00915); test: Binding affinity to human CA1 assessed as inhibition constant by stopped flow kinetic assay
Carbonic anhydrase 9 = Carbonic anhydrase 9 (Homo sapiens, UniProt Q16790); test: Binding affinity to human CA9 assessed as inhibition constant by stopped flow kinetic assay
Carbonic anhydrase 12 = Carbonic anhydrase 12 (Homo sapiens, UniProt O43570); test: Binding affinity to human CA12 assessed as inhibition constant by stopped flow kinetic assay
Carbonic anhydrase 2 = Carbonic anhydrase 2 (Homo sapiens, UniProt P00918); test: Binding affinity to human CA2 assessed as inhibition constant by stopped flow kinetic assay

Chain of Prostaglandin G/H synthase 1 (P23219 whole entry): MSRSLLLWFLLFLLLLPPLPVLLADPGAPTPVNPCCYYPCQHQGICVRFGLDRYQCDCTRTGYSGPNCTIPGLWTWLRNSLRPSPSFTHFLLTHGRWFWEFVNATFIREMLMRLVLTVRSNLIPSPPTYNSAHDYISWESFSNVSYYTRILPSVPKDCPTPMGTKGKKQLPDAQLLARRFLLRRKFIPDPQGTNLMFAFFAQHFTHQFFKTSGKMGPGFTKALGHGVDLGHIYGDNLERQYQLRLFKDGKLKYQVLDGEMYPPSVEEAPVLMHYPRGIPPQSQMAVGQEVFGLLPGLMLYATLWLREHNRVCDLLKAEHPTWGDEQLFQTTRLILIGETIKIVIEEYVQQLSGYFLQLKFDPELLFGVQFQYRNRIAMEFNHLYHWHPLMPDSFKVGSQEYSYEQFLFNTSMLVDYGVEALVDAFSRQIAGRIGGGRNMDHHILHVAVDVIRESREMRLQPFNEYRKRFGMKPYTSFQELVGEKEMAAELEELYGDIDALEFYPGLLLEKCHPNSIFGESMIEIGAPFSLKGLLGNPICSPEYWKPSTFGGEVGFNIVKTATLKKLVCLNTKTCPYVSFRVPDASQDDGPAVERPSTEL
Chain of Carbonic anhydrase 12 (O43570 whole entry): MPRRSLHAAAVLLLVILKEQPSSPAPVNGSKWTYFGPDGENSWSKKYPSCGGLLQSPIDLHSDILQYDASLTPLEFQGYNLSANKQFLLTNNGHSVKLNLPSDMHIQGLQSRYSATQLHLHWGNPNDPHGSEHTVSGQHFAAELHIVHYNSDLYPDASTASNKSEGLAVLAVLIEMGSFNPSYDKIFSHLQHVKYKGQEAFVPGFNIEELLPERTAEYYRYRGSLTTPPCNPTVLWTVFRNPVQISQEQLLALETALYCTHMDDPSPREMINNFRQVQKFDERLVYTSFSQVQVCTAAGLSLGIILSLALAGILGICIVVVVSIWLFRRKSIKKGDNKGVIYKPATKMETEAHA
Chain of Carbonic anhydrase 1 (P00915 whole entry): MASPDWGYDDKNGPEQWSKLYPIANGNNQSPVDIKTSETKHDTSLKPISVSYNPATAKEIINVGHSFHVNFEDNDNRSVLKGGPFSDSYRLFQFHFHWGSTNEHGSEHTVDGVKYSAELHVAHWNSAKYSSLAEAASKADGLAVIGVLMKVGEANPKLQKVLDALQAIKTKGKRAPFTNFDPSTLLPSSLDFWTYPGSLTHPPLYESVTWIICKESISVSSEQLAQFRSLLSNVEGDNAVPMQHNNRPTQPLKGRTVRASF

Structure (SMILES): O=C(O)Cc1ccccc1Nc1c(Cl)cccc1Cl [DICLOFENAC]
Activity (Rattus norvegicus [2]): 0.28%
Activity (Rattus norvegicus [3]): 0.32%
Activity [4]: Toxic
Activity (Mus musculus [5]): 70%
Activity (Mus musculus [6]): 12
Activity [7]: Toxic
inhibition (INH) (Rattus norvegicus [8]): 59%
Activity (Rattus norvegicus [9]): 0.52%
Activity (Rattus norvegicus [10]): 0.32%

Structure (SMILES): Nc1c(C(=O)N/N=C/c2ccccc2Cl)cnn1-c1ccc(S(N)(=O)=O)cc1
pIC50 [1]: 4.98

Structure (SMILES): Nc1c(C(=O)N/N=C/c2ccc(Cl)cc2)cnn1-c1ccc(S(N)(=O)=O)cc1
pIC50 [1]: 5.10

Structure (SMILES): Nc1c(C(=O)N/N=C/c2ccc([N+](=O)[O-])cc2)cnn1-c1ccc(S(N)(=O)=O)cc1
pIC50 [1]: 5.30

Structure (SMILES): Cc1ccc(-c2cc(C(F)(F)F)nn2-c2ccc(S(N)(=O)=O)cc2)cc1 [CELECOXIB]
Activity (Rattus norvegicus [2]): 0.44%
Activity (Rattus norvegicus [3]): 0.48%
Activity [4]: Non-Toxic
Activity (Mus musculus [5]): 60%
Activity (Mus musculus [6]): 16
inhibition (INH) (Rattus norvegicus [8]): 38.5%
Activity (Rattus norvegicus [9]): 0.5%
Activity (Rattus norvegicus [10]): 0.52%

Structure (SMILES): Nc1c(C(=O)N/N=C/c2ccc(O)cc2)cnn1-c1ccc(S(N)(=O)=O)cc1
Activity (Rattus norvegicus [2]): 0.52%
Activity (Rattus norvegicus [3]): 0.54%
pKi (Carbonic anhydrase 1): 6.87
Activity [4]: Non-Toxic
Activity (Mus musculus [5]): 52.5%
Activity (Mus musculus [6]): 19
inhibition (INH) (Rattus norvegicus [8]): 31%
pIC50 [1]: 4.90
Activity (Rattus norvegicus [9]): 0.48%
Activity (Rattus norvegicus [10]): 0.62%
pKi (Carbonic anhydrase 9): 7.31
pKi (Carbonic anhydrase 12): 8.24
pKi (Carbonic anhydrase 2): 7.57

Further molecules by rising pIC50 [1], results first:

pIC50 [1]: 4.98
Structure (SMILES): Nc1c(C(=O)N/N=C/c2ccccc2)cnn1-c1ccc(S(N)(=O)=O)cc1
Activity [4]: Non-Toxic

pIC50 [1]: 5.02
Structure (SMILES): Nc1c(C(=O)N/N=C/c2cccs2)cnn1-c1ccc(S(N)(=O)=O)cc1

pIC50 [1]: 5.15
Structure (SMILES): CN(C)c1ccc(/C=N/NC(=O)c2cnn(-c3ccc(S(N)(=O)=O)cc3)c2N)cc1

pIC50 [1]: 5.22
Structure (SMILES): COc1ccc(/C=N/NC(=O)c2cnn(-c3ccc(S(N)(=O)=O)cc3)c2N)cc1

pIC50 [1]: 5.30
Structure (SMILES): Nc1c(C(=O)N/N=C/c2cccc([N+](=O)[O-])c2)cnn1-c1ccc(S(N)(=O)=O)cc1

pIC50 [1]: 5.32
Structure (SMILES): Nc1c(C(=O)N/N=C/c2ccccc2[N+](=O)[O-])cnn1-c1ccc(S(N)(=O)=O)cc1
